Experimental data taken from publication PMC6155738, “Antiparasitic Activity of Sulfur- and Fluorine-Containing Bisphosphonates against Trypanosomatids and Apicomplexan Parasites” (Molecules : A Journal of Synthetic Chemistry and Natural …, 2017).

Target: T1, TgFPPS (Toxoplasma gondii, UniProt Q197X6)
T1 construct: gene FPPS; bifunctional enzyme making FPP and GGPP; enzyme assay as in Szajnman et al., 2008
T1 sequence (Q197X6 1-646): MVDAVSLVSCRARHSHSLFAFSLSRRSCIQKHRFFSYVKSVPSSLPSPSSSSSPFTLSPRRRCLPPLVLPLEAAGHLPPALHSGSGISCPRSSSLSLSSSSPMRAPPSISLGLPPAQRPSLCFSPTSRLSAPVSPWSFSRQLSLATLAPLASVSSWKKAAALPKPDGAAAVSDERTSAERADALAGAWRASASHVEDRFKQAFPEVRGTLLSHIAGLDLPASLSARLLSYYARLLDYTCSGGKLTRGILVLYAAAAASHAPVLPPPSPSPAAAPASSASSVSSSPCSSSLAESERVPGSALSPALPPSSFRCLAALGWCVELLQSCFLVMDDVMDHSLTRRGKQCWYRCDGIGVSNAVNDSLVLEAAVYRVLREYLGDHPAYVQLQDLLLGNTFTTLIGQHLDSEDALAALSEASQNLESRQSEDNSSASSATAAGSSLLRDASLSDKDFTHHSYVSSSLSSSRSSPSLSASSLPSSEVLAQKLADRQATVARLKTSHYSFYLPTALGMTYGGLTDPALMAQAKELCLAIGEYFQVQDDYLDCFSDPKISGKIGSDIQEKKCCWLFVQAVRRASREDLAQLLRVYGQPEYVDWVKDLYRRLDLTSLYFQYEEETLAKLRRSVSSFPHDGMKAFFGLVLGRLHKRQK
Experiment: FPPS enzymatic activity assay
Assay type: biochemical
Excerpt: FPPS enzymatic activity assay on TgFPPS

SMILES | IC50
C=C(C)CNCC(P(=O)(O)O)P(=O)(O)O [compound 19, 1-[(2-Methylall-1-ylamino)ethyl] 1,1-bisphosphonic Acid] | 183 ± 63 nM
CC(C)=CCC/C(C)=C/CSCC(P(=O)(O)O)P(=O)(O)O [compound 44, 1-[((E)-3,7-Dimethylocta-2,6-diene-1-thio)ethyl] 1,1-bisphosphonic Acid] | 313 ± 27 nM
CCCCNCC(F)(P(=O)(O)O)P(=O)(O)O [compound 55, 1-[(n-But-1-ylamino)ethyl]-1-fluoro-1,1-bisphosphonic Acid] | 91 ± 32 nM
